Assay results from ChEMBL document CHEMBL1201862, “PubChem BioAssay data set” (2004).
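96-well plates; 48 h exposure; 5 concentrations. Endpoints by linear interpolation between flanking doses. Not reached: highest tested concentration assigned. The concentration for 50% growth inhibition is given as GI50.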 Active and inactive are the calls of the source. No stated cut-off is given here; in the data, active = GI50 up to about 1.1 µM and inactive = higher.

Assays:
Experiment in all cases: NCI tumour cell line growth inhibition, 48 h
[1] = tested on: HOP-62
[2] = tested on: SF-268
[3] = tested on: OVCAR-5
[4] = tested on: HCT-116
[5] = tested on: HOP-92
[6] = tested on: RXF 393
[7] = tested on: SK-MEL-2
[8] = tested on: SF-539
[9] = tested on: U-251
[10] = tested on: IGROV-1
[11] = tested on: NCI-H226
[12] = tested on: ACHN
[13] = tested on: Malme-3M
[14] = tested on: SR
[15] = tested on: OVCAR-3
[16] = tested on: 786-0
[17] = tested on: UACC-62
[18] = tested on: A498

Measured: GI50

CCCCOC(=O)NC(=O)c1cn(CCCOC(=O)CCCCCCCCC(=O)OCCCn2cc(C(=O)NC(=O)OCCCC)c(=O)[nH]c2=O)c(=O)[nH]c1=O
inactive: [1] > 100 µM | [2] > 100 µM | [3] > 100 µM | [4] > 100 µM | [5] > 100 µM | [6] 83 µM | [7] > 100 µM | [8] > 100 µM | [9] > 100 µM | [10] > 100 µM | [11] > 100 µM | [12] > 100 µM | [13] > 100 µM | [14] > 100 µM | [15] > 100 µM | [16] > 100 µM | [17] > 100 µM

COC(=O)C(=C/c1ccc(OC)cc1)/C(C(=O)O)=C(/C)c1ccccc1
inactive: [1] > 100 µM | [3] > 100 µM | [18] > 100 µM | [4] > 100 µM | [5] > 100 µM | [6] > 100 µM | [7] > 100 µM | [8] > 100 µM | [9] > 100 µM | [10] > 100 µM | [11] > 100 µM | [12] > 100 µM | [13] > 100 µM | [14] > 100 µM | [15] > 100 µM | [16] > 100 µM | [17] > 100 µM

Cc1cc(Cl)ccc1NC(=O)CCCC(=O)C1C/C(=N/O)CC/C1=N\O (configuration not stated)
inactive: [1] > 100 µM | [2] > 100 µM | [3] > 100 µM | [18] > 100 µM | [4] > 100 µM | [5] > 100 µM | [7] > 100 µM | [8] > 100 µM | [9] > 100 µM | [10] > 100 µM | [11] > 100 µM | [12] > 100 µM | [13] > 100 µM | [15] > 100 µM | [16] > 100 µM | [17] > 100 µM

COc1c(I)c(OC)c2c(c1I)O[C@@H]1OCC[C@H]21
inactive: [1] 17.4 µM | [3] 41.1 µM | [18] 28.4 µM | [4] 35.6 µM | [5] 22.7 µM | [6] 37.4 µM | [7] 19.9 µM | [8] > 100 µM | [9] 37.6 µM | [10] 37.6 µM | [11] 23.6 µM | [12] 17.3 µM | [13] 34 µM | [14] 15.7 µM | [15] 27.7 µM | [16] 34.8 µM | [17] 32.5 µM

O=[N+]([O-])c1ccc(N=P(c2ccccc2)(c2ccccc2)c2ccccc2)n2nnnc12
inactive: [1] 25.6 µM | [2] 36.1 µM | [3] > 100 µM | [18] > 100 µM | [5] 22.2 µM | [6] 44 µM | [7] 33.7 µM | [8] 23 µM | [9] 54.8 µM | [10] > 100 µM | [12] 43.5 µM | [13] 50.8 µM | [15] 34.5 µM | [16] 28.1 µM | [17] 37.3 µM

C#CC(C)(C)Oc1cc(O)c2c(=O)c3ccccc3n(C)c2c1
inactive: [1] 94 µM | [2] > 100 µM | [3] > 100 µM | [18] > 100 µM | [4] > 100 µM | [5] > 100 µM | [6] > 100 µM | [7] > 100 µM | [8] 15.5 µM | [9] 42.1 µM | [10] > 100 µM | [11] > 100 µM | [12] 86.1 µM | [13] > 100 µM | [14] 17.3 µM | [15] > 100 µM | [16] 53.3 µM | [17] > 100 µM

C=C1C(=O)OC2C/C(C)=C/CC/C(C)=C/CCC3(COC(C)=O)OC3CC12 (configuration not stated)
inactive: [1] 18.7 µM | [2] 10 µM | [3] 16.5 µM | [18] 13.8 µM | [4] 1.84 µM | [6] 2.51 µM | [7] 3.33 µM | [8] 2.85 µM | [9] 11.2 µM | [10] 16.7 µM | [12] 14.1 µM | [13] 12.9 µM | [15] 6.19 µM | [16] 5.65 µM | [17] 11.8 µM

O=C(Nc1ccccc1C(=O)NC(=O)c1ccccc1NC(=O)c1ccccc1)c1ccccc1
inactive: [1] 12.4 µM | [2] 6.85 µM | [3] 3.6 µM | [18] 15.1 µM | [4] 3.45 µM | [5] 1.99 µM | [6] 2.88 µM | [7] 1.87 µM | [8] 5.09 µM | [9] 3.49 µM | [10] 1.86 µM | [12] 17.9 µM | [13] 3.34 µM | [14] 2.42 µM | [15] 3.29 µM | [16] 12 µM | [17] 2.07 µM
